Consider 7 molecules from patent US20260241049A1, “Radiopharmaceutical Compositions Targeting Glypican-3 and Uses Thereof” (RayzeBio, Inc., priority 2023, published 2026).

Starred links: 1 amine or outer side, 2 acyl side, 3 side chain; linkers in the order of their positions; H or OH if unused. Positions of bridges follow the written chain, without caps; N, C: chain ends. Non-standard residues stand in square brackets, D forms with d. Residues, ends and D or L forms follow the SMILES beside them. Primed or numbered codes have the meaning given here. MeHseMe″ = (2S)-4-methoxy-2-(methylamino)butanoic acid (N-methyl-O-methyl-L-homoserine), COCC[C@@H](C(=O)[*:2])N(C)[*:1]; Phe(4-(1-Me-pyrazol-4-yl)) = Cn1cc(-c2ccc(C[C@H](N)C(=O)O)cc2)cn1; NMeAla(isoquinolin-7-yl) = CN[C@@H](Cc1ccc2ccncc2c1)C(=O)O; 3Pal(6-Ph) = N[C@@H](Cc1ccc(-c2ccccc2)nc1)C(=O)O; Phe(4-COOH) = N[C@@H](Cc1ccc(C(=O)O)cc1)C(=O)O; NMe2Nal = CN[C@@H](Cc1ccc2ccccc2c1)C(=O)O; NMeI = CC[C@H](C)[C@H](NC)C(=O)O; NMeQ = CN[C@@H](CCC(N)=O)C(=O)O; NMehSer = CN[C@@H](CCO)C(=O)O; NMeK = CN[C@@H](CCCCN)C(=O)O; NMeC = CN[C@@H](CS)C(=O)O

Data set [1] relates to late-stage liver cancer patients. To be noted: phase II clinical trial, 185 late-stage liver cancer patients; cited from earlier work.
A further data set has as its system HCC patient. As to conditions: cited from earlier work.
The target in a further data set is T1, human Glypican3 (Homo sapiens, UniProt P51654).
T1 construct: purchased R&D systems 2119-GP
As to the kind of experiment: SPR binding to Glypican-3, Method B-1 (Glypican3 immobilized on CM3 chip, Biacore T200). To be noted: SPR method B-1. How it is done: A CM3 sensor chip (Cytiva) was inserted into a Biacore T200 (Cytiva), primed three times with a running buffer: HBS-P+, pH 7.4 (Cytiva), and equilibrated at a flow rate of 30 μL/min. Ligand immobilization was performed at a flow rate of 10 μL/min. 50 μL each of 60 mM EDC solution (Cytiva) and 650 mM NHS solution (Cytiva) were mixed, and then reacted at a flow rate of 10 μL/min for 420 seconds, 150 μL of 0.2 μM human Glypican3 (R&D systems, catalog number: 2119-GP) solution which was prepared by diluting with 10 mM acetic acid solution (pH 5.0), was reacted at a flow rate of 10 μL/min for 420 seconds, and Glypican3 was immobilized on the CM3 sensor chip. After immobilization, 1.0 M ethanolamine aqueous solution (Cytiva) was allowed to react for 420 seconds at a flow rate of 10 μL/min for capping. A peptide lysate prepared to 10 mM in DMSO solution was diluted with running buffer to a final concentration of 10 μM peptide lysate. After that, 5 serial dilution series (100 nM, 50 nM, 25 nM, 10 nM, 5 nM) of peptide solutions were prepared. Using the above samples, peptide kinetics for Glypican3 was obtained by SPR measurement. Kinetics evaluation of Glypican3 was performed by SPR measurements at a flow rate of 10 μL/min, setting the association time to 120 seconds and the disassociation time to 600 seconds.
(§1) The obtained data by Method B-1, Method B-2, Method B-3 and Method B-4 were analyzed by follow. Single Cycle Kinetics was used as the kinetics evaluation model, and curve fitting was performed using Biacore T200 Evaluation Software Version 3.0 (Cytiva). The obtained sensorgram was subjected to curve fitting by the method of least squares and obtained KD values of the macrocyclic peptides in this disclosure for Glypican 3 protein are shown in Table 18.

A further data set addresses Human Glypican3-Fc (Homo sapiens, UniProt P51654). As to the kind of experiment: SPR binding to Glypican-3, Method B-4 (Glypican3-Fc on Protein A chip, peptide 40 nM). To be noted: SPR method B-4, peptide 40 nM. How it is done: A Protein A sensor chip (Cytiva) was inserted into a Biacore T200 (Cytiva), priming was performed three times with a running buffer: HBS-P+, pH 7.4 (Cytiva), and equilibration was carried out at a flow rate of […]. Gly pican3-Fc was allowed to react for 60 seconds at a flow rate of 10 μL/min. After capturing human Glypican3-Fc, a peptide solution prepared to 1 mM in DMSO solution was diluted with a running buffer to a final concentration of 1 μM. After that, the peptide solution was diluted to 40 nM in a similar manner. Using the above samples, peptide kinetics for Glypican3 was obtained by SPR measurement. Kinetics evaluation of Glypican3 was performed by SPR measurements at a flow rate of 30 μL/min. setting the association time to 120 seconds and the disassociation time to 600 seconds.
as §1
(In general: SPR reads the build-up and loss of mass on a sensor chip optically.)

Data set [2] concerns HepG2 (glypican 3 expressed on the cell surface). As to the kind of experiment: Flow cytometry, biotinylated peptides followed by SAPE, HepG2. It is filed as cell-based, human. To be noted: biotinylated peptide at 100 nM followed by SAPE (1:250), on ice; versus SK-Hep1 negative control; FIG. 1. How it is done:
(§2) HepG2 (human hepatocellular carcinoma) and SK-HEP-1 (human hepatic adenocarcinoma) cell lines were purchased from the American Type Culture Collection (ATCC; Manassas, VA). Huh-7 (human hepatoblastoma) cell line was purchased from the Japanese Collection of Research Bioresources Cell Bank (JCRB Cell Bank, Osaka, Japan). HepG2 and SK-HEP-1 were grown in EMEM (FUJIFILM Wako Pure Chemical Corporation, 055-08975) with 10% fetal bovine serum (FBS; Thermo Fisher Scientific, 10270106) and 0.1% gentamicin (NACALAI TESQUE, 11980-14). Huh-7 was grown in DMEM (Thermo Fisher Scientific, 10567014) with 10% FBS and 0.1% gentamicin.
(§3) HepG2, SK-HEP-1 and Huh-7 cells were collected from the culture dish and stained with biotinylated peptides at 100 nM followed by Streptavidin, R-Phycoerythrin Conjugate (SAPE: Thermo Fisher Scientific, S866) (1:250). Cells were washed with phosphate-buffered saline (PBS; FUJIFILM Wako Pure Chemical Corporation, 043-29791) containing 0.5% FBS after addition of peptides or SAPE. All staining procedures were performed on ice. Samples were measured using CytoFLEX S (Beckman Coulter) and CytExpert ver2.4 software. All data were analyzed using FlowJo™ (BD Bioscience). For discrimination of live cells from dead cells, SYTOX™ Blue Dead Cell Stain (Thermo Fisher Scientific, S34857) (1:5000) was added prior to measurement.

In data set [3] the test system is Huh-7 (glypican 3 expressed on the cell surface). As to the kind of experiment: Flow cytometry, biotinylated peptides followed by SAPE, Huh-7. It is filed as cell-based, human. As to conditions: biotinylated peptide at 100 nM followed by SAPE (1:250), on ice; versus SK-Hep1 negative control; FIG. 2. The procedure:
as §2, §3
Background: A flow cytometer gives signals particle by particle.

Data set [4] has as its target T2, Human Glypican3-Fc (ACRO Biosystems, GP3-H5258) (human, UniProt P51654 25-559).
T2 construct: Bought fusion protein, captured in Methods B-2, B-3 and B-4; Catalogue number is printed only in Method B-2; not shown: Fc part of the bought fusion
As to the kind of experiment: SPR (Biacore T200), Method B-4: Glypican3-Fc captured on Protein A chip, peptide at 40 nM. How it is done: Using the above samples, peptide kinetics for Glypican3 was obtained by SPR measurement.
The obtained data by Method B-1, Method B-2, Method B-3 and Method B-4 were analyzed by follow. Single Cycle Kinetics was used as the kinetics evaluation model, and curve fitting was performed using Biacore T200 Evaluation Software Version 3.0 (Cytiva).

Data set [5] concerns the target Human Glypican3-Fc (ACRO Biosystems, GP3-H5258) (human) (UniProt P51654). The data set can be described thus: SPR (Biacore T200), Method B-3: Glypican3-Fc captured on Protein A chip, peptide as analyte.

On to Codrituzumab, for which, in data set [1], the “therapeutic efficacy compared with the control group” value is given as “not impressive”. Besides, the “tolerance in phase I clinical trials” value with HCC patient (phase I clinical trials) was “good immune tolerance”. In addition, the “anti-tumour effect in HCC patient” value in the data set with HCC patient (phase I, advanced hepatocellular carcinoma) was “anti-tumour effect”.
Regarding `CC[C@H](C)[C@@H]1NC(=O)[C@H](Cc2ccc(C(=O)O)cc2)NC(=O)[C@H](CCC(N)=O)N(C)C(=O)[C@H](CC(=O)O)NC(=O)[C@H]([C@@H](C)CC)N(C)C(=O)[C@H](CCCCNC(C)=O)N(C)C(=O)CSC[C@@H](C(N)=O)N(C)C(=O)[C@H](Cc2ccc(-c3cnn(C)c3)cc2)NC(=O)CNC(=O)[C@H](Cc2ccc3ccccc3c2)N(C)C(=O)[C@H](Cc2ccc(C(=O)O)cc2)NC(=O)[C@H]([C@@H](C)CC)NC1=O` [Conjugate 2-2] ({CH2CO}-[NMeK](Ac)[NMeI]D[NMeQ][Phe(4-COOH)]II[Phe(4-COOH)][NMe2Nal]G[Phe(4-(1-Me-pyrazol-4-yl))][NMeC]-NH2; thioether N-12), at human Glypican3, the Kd (commonly the concentration at which binding is half-saturated) was 1.5 nM.
As for `CC[C@H](C)[C@@H]1NC(=O)[C@H](Cc2ccc(C(=O)O)cc2)NC(=O)[C@H](CCC(N)=O)N(C)C(=O)[C@H](CC(=O)O)NC(=O)[C@H](CCOC)N(C)C(=O)[C@H](CCCCN)N(C)C(=O)CSC[C@@H](C(N)=O)N(C)C(=O)[C@H](Cc2ccc(-c3ccccc3)nc2)NC(=O)CNC(=O)[C@H](Cc2ccc3ccncc3c2)N(C)C(=O)[C@H](Cc2ccc(O)cc2)NC(=O)[C@H]([C@@H](C)CC)NC1=O` [Conjugate 2-61] ({CH2CO}-[NMeK][NMehSer](Me)D[NMeQ][Phe(4-COOH)]IIY[NMeAla(isoquinolin-7-yl)]G[3Pal(6-Ph)][NMeC]-NH2; thioether N-12), binding on Human Glypican3-Fc was put at a Kd of 0.23 nM.
With `CC[C@H](C)[C@@H]1NC[C@H](Cc2ccc(C(=O)O)cc2)NC(=O)[C@H](CCC(N)=O)N(C)C(=O)[C@H](CC(=O)O)NC(=O)[C@H]([C@@H](C)CC)N(C)C(=O)[C@H](CCCCNC(C)=O)N(C)C(=O)CSC[C@@H](C(=O)NCC(=O)NCCOCCOCCOCCOCCOCCOCCOCCOCCOCCOCCC(=O)N[C@@H](CCCCNC(=O)CCCC[C@@H]2SC[C@@H]3NC(=O)N[C@@H]32)C(N)=O)N(C)C(=O)[C@H](Cc2ccc(-c3ccccc3)nc2)NC(=O)CNC(=O)[C@H](Cc2ccc3ccncc3c2)N(C)C(=O)[C@H](Cc2ccc(O)cc2)NC(=O)[C@H]([C@@H](C)CC)NC1=O` [PLB-60], the “comparative staining of HepG2 cells (flow cytometry)” value in data set [2] is “specific binding”. Moreover, the “comparative staining of Huh-7 cells (flow cytometry)” value in data set [3] is “specific binding”.

B1: Macrocyclic peptide of Example 2-61 (SEQ ID No. 72) (peptide)
peptide: {CH2CO}-[NMeK][MeHseMe″]D[NMeQ][Phe(4-COOH)]IIY[NMeAla(isoquinolin-7-yl)]G[3Pal(6-Ph)][NMeC]-NH2
modifications: thioether N-12
SMILES: CC[C@H](C)[C@@H]1NC(=O)[C@H](Cc2ccc(C(=O)O)cc2)NC(=O)[C@H](CCC(N)=O)N(C)C(=O)[C@H](CC(=O)O)NC(=O)[C@H](CCOC)N(C)C(=O)[C@H](CCCCN)N(C)C(=O)CSC[C@@H](C(N)=O)N(C)C(=O)[C@H](Cc2ccc(-c3ccccc3)nc2)NC(=O)CNC(=O)[C@H](Cc2ccc3ccncc3c2)N(C)C(=O)[C@H](Cc2ccc(O)cc2)NC(=O)[C@H]([C@@H](C)CC)NC1=O
In data set [4], B1 returned a Kd of 0.23 nM. That is a sub-nanomolar value.

B2: Macrocyclic peptide of Example 2-37 (SEQ ID No. 54) (peptide)
peptide: XSDXFTIXFGXC
modifications: not fully specified; MeDapCOpipzaa-MeHseMe-D-MeDapCOpipzaa-F4COO-TMe-I-Yae-MeNal27N-G-3Py6Ph-MeC-NH2; thioether ring from N-terminal acetyl to MeC12
Take B2: in data set [5], the Kd was determined as 1 nM. This counts as single-digit nanomolar.

B3: Macrocyclic peptide of Example 2-33 (SEQ ID No. 50) (peptide)
peptide: XSDXFTIXFGXC
modifications: not fully specified; MeDapCOpipzaa-MeHseMe-D-MeDapCOpipzaa-F4COO-TMe-I-Yae-MeNal2-G-3Py6Ph-MeC-NH2; thioether ring from N-terminal acetyl to MeC12
Consider B3, for which the Kd in data set [5] turned out to be 0.3 nM.
